By EC50 is commonly meant the concentration giving half of the maximal effect. Read a high EC50 as a need for much substance. A word on the inhibition: it is the change of the read-out against control, counted positive when it falls.

Where only a bound is given, the exact number is not on record here.

Holding throughout (type): cell-based
Assay [1] has as its system Wnt activity (Sp5-Luc reporter, SW480 colon carcinoma cells). Briefly: Screening assay for Wnt activity: Sp5-Luc reporter gene assay in SW480 cells. The following applies: Homo sapiens, overnight incubation, 10-point dose-response from 10 μM. The essentials:
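SW480 cells stably carrying Sp5-Luc reporter (eight TCF/LEF sites) plated at 4,000/well in 1% FBS medium with compound (10-point 1:3 series from 10 μM, 0.1% DMSO) overnight at 37 °C. BrightGlo luminescence normalized to DMSO; EC50 by four-parameter fit, else % inhibition at 10 μM.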

In assay [2] the test system is SW480 colon cancer cells. Briefly: Cell viability assay (CellTiter-Blue), four days. The following applies: Homo sapiens, 96 h; for EC50: CellTiter-Blue cell viability; for inhibition at 10 µM: read-out: percent inhibition at 10 μM (given for EC50 of >10 μM). The essentials: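 Approximately 2×10^3 SW480 cells per well are seeded with compound (8 points, threefold steps, top 10 μM) and incubated four days at 37 °C. CellTiter-Blue is then added for about 3 h and fluorescence read. Non-linear regression gives EC50; for values beyond 10 μM, percent inhibition at that concentration is listed.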
In general terms: Resazurin is reduced to fluorescent resorufin, in cell work by metabolically active cells.

Assay [3] has as its system IL-6 (THP-1 cells). Briefly: Inhibition of IL-6 in LPS-stimulated THP-1 monocytes (HTRF). The following applies: Homo sapiens; for EC50: LPS 500 ng/mL, IL-6 by HTRF; for inhibition at 10 µM: LPS stimulated, IL-6, at 10 μM, read-out: percent inhibition at 10 μM (given for EC50 of >10 μM). Summed up:
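THP-1 cells, serum-starved in 1% FBS for 24 h, were pre-incubated 2 h with compound (10-point, 1:3 from 10 μM, 0.1% DMSO), then stimulated with 500 ng/mL LPS for 22 h at 37 °C. IL-6 was quantified by HTRF 665/620 ratio. EC50 was fitted from DMSO-normalized data; above 10 μM, % inhibition at 10 μM is given.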
(In general: Time-resolved FRET reads energy transfer from a long-lived donor to a nearby acceptor.)

Consider `CC(C)CC(=O)Nc1cncc(-c2ccc3[nH]nc(-c4nc5c(-c6cccc(F)c6)ccnc5[nH]4)c3n2)c1` [Compound 2, N-(5-(3-(7-(3-fluorophenyl)-3H-imidazo[4,5-b]pyridin-2-yl)-1H-pyrazolo [4,3-b]pyridin-5-yl)pyridin-3-yl)-3-methylbutanamide], for which the EC50 was 0.495 µM in assay [1], 0.4 µM in assay [2] and 0.296 µM in assay [3].

As to `CN(C)c1cncc(-c2ccc3[nH]nc(-c4nc5c(-c6cccc(F)c6)ccnc5[nH]4)c3n2)c1` [Compound 7, 5-(3-(7-(3-fluorophenyl)-3H-imidazo[4,5-b]pyridin-2-yl)-1H-pyrazolo[4,3-b]pyridin-5-yl)-N,N-dimethylpyridin-3-amine], the EC50 was 0.929 µM in assay [1], 0.54 µM in assay [2] and 7.5 µM in assay [3].

With `CN(C)Cc1cncc(-c2ccc3[nH]nc(-c4nc5c(-c6cccc(F)c6)ccnc5[nH]4)c3n2)c1` [Compound 13, 1-(5-(3-(7-(3-fluorophenyl)-3H-imidazo[4,5-b]pyridin-2-yl)-1H-pyrazolo [4,3-b]pyridin-5-yl)pyridin-3-yl)-N,N-dimethylmethanamine], the EC50 in assay [1] was 2.88 µM; in assay [2], 1.13 µM; in assay [3], 5.93 µM.

For `Fc1ccc(-c2ccnc3[nH]c(-c4n[nH]c5ccc(-c6cncc(CN7CCCC7)c6)nc45)nc23)cc1` [Compound 42, 3-(7-(4-fluorophenyl)-3H-imidazo[4,5-b]pyridin-2-yl)-5-(5-(pyrrolidin-1-ylmethyl)pyridin-3-yl)-1H-pyrazolo[4,3-b]pyridine], the EC50 in assay [1] was 3.73 µM; in assay [2], 1.08 µM; in assay [3] it was more than 10 µM. For the same molecule, the inhibition at 10 µM in assay [3] turned out to be 46.1%.

With `O=C(Nc1cncc(-c2ccc3[nH]nc(-c4nc5c(-c6ccc(F)cc6)ccnc5[nH]4)c3n2)c1)C1CCC1` [Compound 49, N-(5-(3-(7-(4-fluorophenyl)-3H-imidazo[4,5-b]pyridin-2-yl)-1H-pyrazolo [4,3-b]pyridin-5-yl)pyridin-3-yl)cyclobutanecarboxamide], the EC50 in assay [1] is 0.908 µM; in assay [2] it was 0.551 µM; in assay [3], more than 10 µM. For the same molecule, the inhibition at 10 µM in assay [3] was determined as 44%.

Regarding `CC(C)(C)CC(=O)Nc1cncc(-c2ccc3[nH]nc(-c4nc5c(-c6ccccc6F)ccnc5[nH]4)c3n2)c1` [Compound 72, N-(5-(3-(7-(2-fluorophenyl)-3H-imidazo[4,5-b]pyridin-2-yl)-1H-pyrazolo [4,3-b]pyridin-5-yl)pyridin-3-yl)-3,3-dimethylbutanamide], the EC50 was 1.99 µM in assay [1], more than 10 µM in assay [2] and more than 10 µM in assay [3]. For the same molecule, the inhibition at 10 µM in assay [2] is 0%; in assay [3], 27.8%.

`Fc1ccccc1-c1ccnc2[nH]c(-c3n[nH]c4ccc(-c5ccccn5)nc34)nc12` [Compound 84, 3-(7-(2-Fluorophenyl)-3H-imidazo[4,5-b]pyridin-2-yl)-5-(pyridin-2-yl)-1H-pyrazolo[4,3-b]pyridine]: the EC50 in assay [1] is 0.67 µM; in assay [2] it was more than 10 µM; in assay [3] it was more than 10 µM. In addition, the inhibition at 10 µM was 0% in assay [2] and 23% in assay [3].

Regarding `c1cncc(-c2ccc3[nH]nc(-c4nc5c(-c6cccnc6)ccnc5[nH]4)c3n2)c1` [Compound 88, 5-(pyridin-3-yl)-3-(7-(pyridin-3-yl)-3H-imidazo[4,5-b]pyridin-2-yl)-1H-pyrazolo [4,3-b]pyridine], the half-maximal effective concentration (EC50) in assay [1] is 1.6 µM; in assay [2], more than 10 µM; in assay [3], more than 10 µM. Also, the inhibition at 10 µM in assay [2] was 42.2%; in assay [3], 36.6%.

In the case of `CC(C)Nc1cncc(-c2ccc3[nH]nc(-c4nc5c(-c6cccnc6)ccnc5[nH]4)c3n2)c1` [Compound 96, N-isopropyl-5-(3-(7-(pyridin-3-yl)-3H-imidazo[4,5-b]pyridin-2-yl)-1H-pyrazolo[4,3-b]pyridin-5-yl)pyridin-3-amine], the values for the EC50 in assay [1], in assay [2] and in assay [3] were 1.96 µM, 2 µM and 0.424 µM, respectively.

On to `O=C(Nc1cncc(-c2ccc3[nH]nc(-c4nc5c(N6CCCCC6)ccnc5[nH]4)c3n2)c1)C1CC1` [Compound 188, N-(5-(3-(7-(Piperidin-1-yl)-3H-imidazo[4,5-b]pyridin-2-yl)-1H-pyrazolo [4,3-b]pyridin-5-yl)pyridin-3-yl)cyclopropanecarboxamide], for which the figures for the half-maximal effective concentration (EC50) in assay [1], in assay [2] and in assay [3] were 4 µM, 3.91 µM and more than 10 µM, respectively. Moreover, the inhibition at 10 µM in assay [3] was found to be 28%.

Consider `Cc1ccncc1-c1ccc2[nH]nc(-c3nc4c(-c5ccsc5)ccnc4[nH]3)c2n1` [Compound 285, 5-(4-methylpyridin-3-yl)-3-(7-(thiophen-3-yl)-3H-imidazo[4,5-b]pyridin-2-yl)-1H-pyrazolo[4,3-b]pyridine], for which the figures for the EC50 in assay [1], in assay [2] and in assay [3] were 0.865 µM, 0.944 µM and 9.88 µM, respectively.

In the case of `O=C(Nc1cncc(-c2ccc3[nH]nc(-c4nc5c(-c6ccsc6)ccnc5[nH]4)c3n2)c1)c1ccccc1` [Compound 291, N-(5-(3-(7-(Thiophen-3-yl)-3H-imidazo[4,5-b]pyridin-2-yl)-1H-pyrazolo [4,3-b]pyridin-5-yl)pyridin-3-yl)benzamide], the EC50 is 0.527 µM in assay [1], more than 10 µM in assay [2] and more than 10 µM in assay [3]. The figures for the inhibition at 10 µM in assay [2] and in assay [3] were 2% and 21%, respectively.

In the case of `CCCC(=O)Nc1cncc(-c2ccc3[nH]nc(-c4nc5c(-c6ccsc6)ccnc5[nH]4)c3n2)c1` [Compound 297, N-(5-(3-(7-(thiophen-3-yl)-3H-imidazo[4,5-b]pyridin-2-yl)-1H-pyrazolo[4,3-b]pyridin-5-yl)pyridin-3-yl)butyramide], the EC50 in assay [1] was 0.822 µM; in assay [2] it was 2.64 µM; in assay [3], 9.91 µM.

With `FC1(F)CCN(Cc2cncc(-c3ccc4[nH]nc(-c5nc6c(-c7ccsc7)ccnc6[nH]5)c4n3)c2)C1` [Compound 306, 5-(5-((3,3-difluoropyrrolidin-1-yl)methyl)pyridin-3-yl)-3-(7-(thiophen-3-yl)-3H-imidazo[4,5-b]pyridin-2-yl)-1H-pyrazolo[4,3-b]pyridine], the results for the concentration giving a half-maximal response (EC50) in assay [1], in assay [2] and in assay [3] were 0.533 µM, 0.58 µM and 1.33 µM, respectively.

As for `CCNCc1cncc(-c2ccc3[nH]nc(-c4nc5c(-c6ccoc6)ccnc5[nH]4)c3n2)c1` [Compound 314, N-((5-(3-(7-(furan-3-yl)-3H-imidazo[4,5-b]pyridin-2-yl)-1H-pyrazolo[4,3-b]pyridin-5-yl)pyridin-3-yl)methyl)ethanamine], the EC50 in assay [1] was 3.83 µM; in assay [2], 2.82 µM; in assay [3], more than 10 µM. The inhibition at 10 µM in assay [3] amounted to 23.9%.

For `CC(C)Nc1cncc(-c2ccc3[nH]nc(-c4nc5c(-c6ccoc6)ccnc5[nH]4)c3n2)c1` [Compound 320, 5-(3-(7-(furan-3-yl)-3H-imidazo[4,5-b]pyridin-2-yl)-1H-pyrazolo[4,3-b]pyridin-5-yl)-N-isopropylpyridin-3-amine], the values for the half-maximal effective concentration (EC50) in assay [1], in assay [2] and in assay [3] were 0.341 µM, 0.378 µM and 0.456 µM, respectively.

Turning to `CCCCC(=O)Nc1cncc(-c2ccc3[nH]nc(-c4nc5c(-c6ccoc6)ccnc5[nH]4)c3n2)c1` [Compound 327, N-(5-(3-(7-(furan-3-yl)-3H-imidazo[4,5-b]pyridin-2-yl)-1H-pyrazolo[4,3-b]pyridin-5-yl)pyridin-3-yl)pentanamide], the EC50 was 0.803 µM in assay [1], more than 10 µM in assay [2] and more than 10 µM in assay [3]. The inhibition at 10 µM in assay [2] was found to be 4.9%; in assay [3], 42.4%.

As to `CN(C)Cc1cncc(-c2ccc3[nH]nc(-c4nc5c(-c6cccs6)ccnc5[nH]4)c3n2)c1` [Compound 349, N,N-dimethyl-1-(5-(3-(7-(thiophen-2-yl)-3H-imidazo[4,5-b]pyridin-2-yl)-1H-pyrazolo[4,3-b]pyridin-5-yl)pyridin-3-yl)methanamine], the EC50 in assay [1] turned out to be 3.96 µM; in assay [2] it was 1.16 µM; in assay [3], 4.78 µM.

Regarding `O=C(Nc1cncc(-c2ccc3[nH]nc(-c4nc5c(-c6cccs6)ccnc5[nH]4)c3n2)c1)C1CC1` [Compound 356, N-(5-(3-(7-(Thiophen-2-yl)-3H-imidazo[4,5-b]pyridin-2-yl)-1H-pyrazolo [4,3-b]pyridin-5-yl)pyridin-3-yl)cyclopropanecarboxamide], the values for the EC50 in assay [1], in assay [2] and in assay [3] were 2.28 µM, more than 10 µM and more than 10 µM, respectively. In addition, the results for the inhibition at 10 µM in assay [2] and in assay [3] were 12.4% and 38%, respectively.

Consider `Cc1ccc(-c2ccnc3[nH]c(-c4n[nH]c5ccc(-c6cncc(N)c6)nc45)nc23)s1` [Compound 395, 5-(3-(7-(5-methylthiophen-2-yl)-3H-imidazo[4,5-b]pyridin-2-yl)-1H-pyrazolo[4,3-b]pyridin-5-yl)pyridin-3-amine], for which the concentration giving a half-maximal response (EC50) in assay [1] was determined as 0.047 µM; in assay [2], 0.084 µM; in assay [3], 0.25 µM.

Source of the values: patent US10329309B2, “3-(3H-imidazo[4,5-B]pyridin-2-yl)-1H-pyrazolo[4,3-B]pyridines and therapeutic uses thereof” (Samumed, LLC, priority 2015, dated 2019).
